In the supplement of paper PMC11061612:

Columns and labels:
[1] = system: ASH-3 (Thyroid Gland Carcinoma); assay: Bliss excess, mean over the matrix (fraction); higher = more synergy
Procedure, shortened: (§1)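 Cell lines grown in DMEM/F12 or RPMI with 10% FBS were plated in 1536-well plates and held 24 hours at 37°C, 5% CO2 before 72 hours of exposure to two-drug dose matrices, with DMSO typically at 0.2%. CellTiter-Glo 2.0 luminescence gave viability, which was converted to inhibition. Vehicle wells were set to 0 and blank wells to 1. Combination Emax is the second-highest inhibition in the matrix, and Bliss excess is the observed combination effect minus the expected EA + EB − EA·EB, where EA and EB are the single-agent effects.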

EW-13 (Ewing's Sarcoma) [2] = assay: as above
Procedure, shortened: as §1

GI-1 (Glioblastoma) [3] = assay: as above
Procedure, shortened: as §1

[4] = system: LC4-1 (B-Lymphoblastic Leukemia); assay: as above
Procedure, shortened: as §1

NB7 (Neuroblastoma) = assay: as above
Procedure, shortened: as §1

[5] = system: NCI-N87 (Gastric Carcinoma); assay: as above
Procedure, shortened: as §1

[6] = system: PFSK-1 (Other Solid Carcinomas); assay: as above
Procedure, shortened: as §1

[7] = system: EBC-1 (Squamous Cell Lung Carcinoma); assay: combination Emax (second highest fraction inhibited in the dose matrix, 72 h); higher = more inhibition; extreme values may be limits of the assay
Procedure, shortened: as §1

EW-13 (Ewing's Sarcoma) [8] = assay: as above
Procedure, shortened: as §1

GI-1 (Glioblastoma) [9] = assay: as above
Procedure, shortened: as §1

[10] = system: H-EMC-SS (Chondrosarcoma); assay: as above
Procedure, shortened: as §1

[11] = system: HuP-T3 (Pancreatic Carcinoma); assay: as above
Procedure, shortened: as §1

IMR-5 (Neuroblastoma) = assay: as above
Procedure, shortened: as §1

[12] = system: KLE (Endometrial Carcinoma); assay: as above
Procedure, shortened: as §1

[13] = system: KP-2 (Pancreatic Carcinoma); assay: as above
Procedure, shortened: as §1

[14] = system: KYSE-50 (Esophageal Squamous Cell Carcinoma); assay: as above
Procedure, shortened: as §1

[15] = system: OCUM-1 (Gastric Carcinoma); assay: as above
Procedure, shortened: as §1

[16] = system: PF-382 (T-Lymphoblastic Leukemia); assay: as above
Procedure, shortened: as §1

[17] = system: PFSK-1 (Other Solid Carcinomas); assay: as above
Procedure, shortened: as §1

[18] = system: VMRC-LCD (Lung Adenocarcinoma); assay: as above
Procedure, shortened: as §1
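For Bliss excess, mean over the matrix in this document: after 72 h of two-drug dosing.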

SMILES	Bliss excess [1]	Bliss excess (EW-13 (Ewing's Sarcoma) [2])	Bliss excess (GI-1 (Glioblastoma) [3])	Bliss excess [4]	Bliss excess (NB7 (Neuroblastoma))	Bliss excess [5]	Bliss excess [6]	combination Emax [7]	combination Emax (EW-13 (Ewing's Sarcoma) [8])	combination Emax (GI-1 (Glioblastoma) [9])	combination Emax [10]	combination Emax [11]	combination Emax (IMR-5 (Neuroblastoma))	combination Emax [12]	combination Emax [13]	combination Emax [14]	combination Emax [15]	combination Emax [16]	combination Emax [17]	combination Emax [18]
CN(CCO)CC[C@H](CSc1ccccc1)Nc1ccc(S(=O)(=O)NC(=O)c2ccc(N3CCC([C@@H](O)c4ccccc4-c4ccc(Cl)cc4)CC3)cc2)cc1S(=O)(=O)C(F)(F)F [AZD4320] + C[C@@H](Nc1cc(F)cc(F)c1)c1cc(C(=O)N(C)C)cc2c(=O)cc(N3CCOCC3)oc12 [AZD8186] (first compound max 1 µM, 7x7, partner max 3 µM)	-0.051	-0.015	-0.0011	0.0908	0.0133	0.0029	0.0634	0.972	0.911	0.813	0.727	0.332	1	0.61	0.827	0.283	0.884	1	0.471	0.249
CC1(C)CCC(CN2CCN(c3ccc(C(=O)NS(=O)(=O)c4ccc(NCC5CCOCC5)c([N+](=O)[O-])c4)c(Oc4cnc5[nH]ccc5c4)c3)CC2)=C(c2ccc(Cl)cc2)C1 [Venetoclax] + C[C@@H]1COCCN1C2=NC(=NC(=C2)C3(CC3)[S@](=N)(=O)C)C4=C5C=CNC5=NC=C4 [AZD6738] (first compound max 1 µM, 7x7, partner max 10 µM)	-0.131	0.0008	-0.0025	0.0467	-0.0342	-0.0232	0.0119	0.514	0.671	0.918	0.347	0.663	1	0.515	0.277	0.719	0.672	0.927	0.685	0.537
C[C@@H](c1ccc2nccn2c1)n1nnc2ncc(-c3cnn(C)c3)nc21 [Savolitinib] + Cc1c2c(nn1C)CSCc1cc(n(C)n1)CSc1cc(c3ccccc3c1)OCCCc1c(C(=O)O)n(C)c3c-2c(Cl)ccc13 [AZD5991] (first compound max 1 µM, 7x7, partner max 1 µM)	-0.0466	-0.0546	0.0227	-0.0133	-0.0221	-0.0513	0.02	1	0.313	0.587	0.182	0.189	0.645	0.162	0.205	0.298	0.257	0.134	0.93	0.154
C[C@@H](c1ccc2nccn2c1)n1nnc2ncc(-c3cnn(C)c3)nc21 [Savolitinib] + CC1(C)CCC(CN2CCN(c3ccc(C(=O)NS(=O)(=O)c4ccc(NCC5CCOCC5)c([N+](=O)[O-])c4)c(Oc4cnc5[nH]ccc5c4)c3)CC2)=C(c2ccc(Cl)cc2)C1 [Venetoclax] (first compound max 1 µM, 7x7, partner max 1 µM)	-0.0329	-0.0796	0.0079	-0.0091	-0.0221	-0.0341	-0.0025	0.968	0.128	0.317	0.183	0.0903	0.173	0.0864	0.148	0.196	0.187	0.134	0.302	0.128
NC1(C(=O)N[C@@H](CCO)c2ccc(Cl)cc2)CCN(c2ncnc3[nH]ccc23)CC1 [Capivasertib] + Cn1cnc2c(F)c(Nc3ccc(Br)cc3Cl)c(C(=O)NOCCO)cc21 [Selumetinib] (first compound max 10 µM, 7x7, partner max 10 µM)	0.064	0.0097	0.0399	0.147	-0.0045	0.01	0.0717	0.963	0.249	0.622	0.797	0.464	0.168	0.484	0.454	0.298	0.937	0.764	0.516	0.248
CC(=O)c1c(C)c2cnc(Nc3ccc(N4CCNCC4)cn3)nc2n(C2CCCC2)c1=O [Palbociclib] + CC1(C)CCC(CN2CCN(c3ccc(C(=O)NS(=O)(=O)c4ccc(NCC5CCOCC5)c([N+](=O)[O-])c4)c(Oc4cnc5[nH]ccc5c4)c3)CC2)=C(c2ccc(Cl)cc2)C1 [Venetoclax] (first compound max 10 µM, 7x7, partner max 1 µM)	-0.0086	-0.0311	-0.0394	-0.0396	-0.102	-0.0275	-0.0425	0.223	0.0985	0.03	0.284	0.187	0.7	0.203	0.056	0.233	0	0.633	0.235	0.0618
CS(=O)(=O)CCNCc1ccc(-c2ccc3ncnc(Nc4ccc(OCc5cccc(F)c5)c(Cl)c4)c3c2)o1 [Lapatinib] + C[C@@H](Oc1cc(-c2cnn(C3CCNCC3)c2)cnc1N)c1c(Cl)ccc(F)c1Cl [Crizotinib] (first compound max 10 µM, 7x7, partner max 10 µM)	-0.0207	0.0066	-0.0444	-0.0501	-0.0172	-0.0456	-0.0546	1	0.285	0.909	0.576	0.579	0.976	0.51	0.788	0.93	0.596	0.978	0.956	0.711
CN(CCO)CC[C@H](CSc1ccccc1)Nc1ccc(S(=O)(=O)NC(=O)c2ccc(N3CCC([C@@H](O)c4ccccc4-c4ccc(Cl)cc4)CC3)cc2)cc1S(=O)(=O)C(F)(F)F [AZD4320] + Cn1cnc2c(F)c(Nc3ccc(Br)cc3Cl)c(C(=O)NOCCO)cc21 [Selumetinib] (first compound max 1 µM, 7x7, partner max 3 µM)	-0.026	-0.0149	0.0069	0.0831	0.0397	0.0201	0.057	0.991	0.933	0.801	0.691	0.471	0.994	0.423	0.962	0.239	0.996	1	0.419	0.226
COc1nnc2ccc(N3CCC(c4ccc(OCCN5CCN(C)C(=O)[C@H]5C)cc4)CC3)nn12 [AZD5153] + C=CCn1c(=O)c2cnc(Nc3ccc(N4CCN(C)CC4)cc3)nc2n1-c1cccc(C(C)(C)O)n1 [AZD1775] (first compound max 1 µM, partner max 1 µM)	-0.024	-0.0239	-0.0143	-0.0018	-0.0352	-0.0415	-0.109	0.802	0.407	0.973	0.23	0.584	0.973	0.679	0.437	0.798	0.511	0.999	0.744	0.943
CC1(C)CCC(CN2CCN(c3ccc(C(=O)NS(=O)(=O)c4ccc(NCC5CCOCC5)c([N+](=O)[O-])c4)c(Oc4cnc5[nH]ccc5c4)c3)CC2)=C(c2ccc(Cl)cc2)C1 [Venetoclax] + C=CCn1c(=O)c2cnc(Nc3ccc(N4CCN(C)CC4)cc3)nc2n1-c1cccc(C(C)(C)O)n1 [AZD1775] (first compound max 1 µM, partner max 1 µM)	-0.0662	-0.0523	-0.0127	0.0355	0.0082	0.0552	-0.0171	0.248	0.129	0.902	0.223	0.399	0.924	0.51	0.364	0.647	0.653	0.986	0.72	0.391
Cc1c2c(nn1C)CSCc1cc(n(C)n1)CSc1cc(c3ccccc3c1)OCCCc1c(C(=O)O)n(C)c3c-2c(Cl)ccc13 [AZD5991] + C1CN(CCC1(C(=O)N[C@@H](CCO)C2=CC=C(C=C2)Cl)N)C3=NC=NC4=C3C=CN4 [Capivasertib] (first compound max 1 µM, 7x7, partner max 3 µM)	-0.0769	0.0256	0.045	0.0364	-0.0133	-0.0516	0.0384	0.287	0.432	0.949	0.647	0.228	1	0.267	0.18	0.226	0.219	0.477	1	0.129
Cc1c2c(nn1C)CSCc1cc(n(C)n1)CSc1cc(c3ccccc3c1)OCCCc1c(C(=O)O)n(C)c3c-2c(Cl)ccc13 [AZD5991] + CCN(CCO)CCCOc1ccc2c(Nc3cc(CC(=O)Nc4cccc(F)c4)[nH]n3)ncnc2c1 [AZD2811] (first compound max 1 µM, 7x7, partner max 1 µM)	-0.014	0.032	0.0731	-0.0464	0.0679	-0.0104	-0.0393	0.243	0.454	0.9	0.392	0.241	1	0.267	0.264	0.556	0.394	0.923	0.998	0.613
